Data set [1] in a line: Fluorescence quantum yield. Particulars: quenched substrates versus free fluorophores.
Description: We determined the absorption spectrum of the DNP group and the emission spectrum of the ACC fluorophore in four different assay buffers. […] To determine whether this spectral overlap is sufficient for ACC fluorophore quenching, we synthesized ACC-GDEVD-OH, a caspase substrate cleavage product, and compared its fluorescence with that of the full-length substrate ACC-GDEVD*GVK(DNP)D at various concentrations (Fig. 3).
The test system of data set [2] is Human neutrophil elastase (HNE). Briefly: neutrophil elastase in 0.1 M HEPES and 0.5 M NaCl at pH 7.5. Particulars: 37 °C, up to 30 min.
The test system of data set [3] is caspase-8. Briefly: caspase-8 in caspase buffer supplemented with 1 M sodium citrate. Particulars: human, 37 °C, up to 30 min.
Data set [4] relates to caspase-3. The experiment in a line: caspase-3 in 20 mM Pipes, 0.1 M NaCl, 1 mM EDTA, 10 mM DTT, 10% (w/v) sucrose, pH 7.2 to 7.4. Particulars: human, 37 °C, up to 30 min.
The test system of data set [5] is caspase-7. The experiment in a line: caspase-7 in 20 mM Pipes, 0.1 M NaCl, 1 mM EDTA, 10 mM DTT, 10% (w/v) sucrose, pH 7.2 to 7.4. Particulars: human, 37 °C, up to 30 min.
Data set [6] concerns caspase-7. The experiment in a line: caspase-7 in caspase buffer, IQF library screening and kinetics. Particulars: human, 37 °C, up to 30 min.
Data set [7] deals with caspase-3. Briefly: caspase-3 in caspase buffer, IQF library screening and kinetics. Particulars: human, 37 °C, up to 30 min.
Another data set concerns caspase-6. Briefly: caspase-6 in caspase buffer, IQF library screening. Particulars: human, 37 °C, up to 30 min.
The subject of the next data set is Trypsin. The experiment in a line: trypsin in 0.05 M Tris, 0.15 M NaCl, 0.01% Triton X100, pH 7.6. Particulars: 37 °C, up to 30 min.
Another data set relates to MMP9. The experiment in a line: MMP9 in 0.1 M Tris-HCl, 0.1 M NaCl, 10 mM CaCl2, pH 7.5. To be noted: 37 °C, up to 30 min.
In another data set the test system is MMP2. Briefly: MMP2 in 0.1 M Tris-HCl, 0.1 M NaCl, 10 mM CaCl2, pH 7.5. To be noted: 37 °C, up to 30 min.
For the next data set, the system named is legumain. The experiment in a line: legumain in 40 mM citric acid, 1 mM EDTA, 120 mM Na2HPO4, 10 mM DTT, pH 5.8. Particulars: human, 37 °C, up to 30 min.
The target in data set [8] is T1, caspase-7 (Homo sapiens, UniProt P55210).
T1 construct: made in house
T1 sequence (P55210 24-198 limits assumed): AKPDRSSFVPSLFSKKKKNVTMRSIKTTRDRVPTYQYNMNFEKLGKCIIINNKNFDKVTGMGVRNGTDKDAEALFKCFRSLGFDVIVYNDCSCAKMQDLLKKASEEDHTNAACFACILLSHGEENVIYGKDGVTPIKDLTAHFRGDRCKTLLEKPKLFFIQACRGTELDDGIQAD
T1 sequence (P55210 207-303 limits assumed): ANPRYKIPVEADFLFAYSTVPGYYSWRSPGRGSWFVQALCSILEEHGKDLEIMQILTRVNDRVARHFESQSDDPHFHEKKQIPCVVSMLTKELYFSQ
Briefly: IQF substrate hydrolysis kinetics with caspase-7. The class given is biochemical. Particulars: MCA/Lys(DNP) substrate; caspase-7 30 nM; substrate 1-50 μM; Pipes buffer pH 7.2-7.4; 37 °C; ex 325/em 420 nm; mean of at least three, SD <10%. The protocol:
(§1) All kinetic measurements were performed using a Spectra Max Gemini XPS spectrofluorimeter (Molecular Devices) at 37 °C. For the substrates with the new donor acceptor pair, ACC/DNP, the excitation wavelength was 355 nm, and the emission wavelength was 460 nm; for MCA/DNP, the corresponding values were 325 and 420 nm, respectively. The substrate concentrations were varied, and the enzyme concentration was kept constant in each assay; the total reaction volume was 100 μl. Measurements were conducted for 30 min, and only the linear part of the progress curve was used to determine the reaction velocity. The measurements were repeated, and the data presented are the average of at least three measurements. The catalytic parameters kcat and KM were established using GraphPad Prism software to directly fit the initial velocities and initial substrate concentrations to the Michaelis-Menten equation using non-linear regression analysis.
(§2) Caspase assays were performed in a buffer containing 20 mM Pipes, 0.1 M NaCl, 1 mM EDTA, 10 mM DTT, and 10% (w/v) sucrose at pH 7.2 to 7.4[61]. The buffer used for caspase-8, caspase-9 and caspase-10 was supplemented with 1 M sodium citrate. Each caspase was incubated with assay buffer for 30 min at 37 °C before the substrates were added. For caspase-3, the concentration of substrates containing ACC or MCA on the measurement plate ranged from 1 to 50 μM, and the enzyme concentration ranged from 1 to 3 nM. For caspase-7, the concentration of substrates containing ACC or MCA on the measurement plate ranged from 1 to 50 μM, and the enzyme concentration ranged from 10 to 30 nM. For caspase-8, the concentration of a substrates containing ACC or MCA on the measurement plate ranged from 4 to 80 μM, and the enzyme concentration ranged from 20 to 50 nM.
(§3) To obtain further insight into the caspase P1-P1′ preferences, we determined the kinetic parameters for selected IQF substrates. The kinetic analysis was performed in a similar manner to that described above (Substrate Kinetics). The buffers used for caspase-8, caspase-9, and caspase-10 were supplemented with 1.0 M sodium citrate. The enzyme concentrations were as follows: caspase-3, 6 nM; caspase-7, 25 nM; caspase-8, 30–60 nM; caspase-9, 20–140 nM; and caspase-10, 25–125 nM. When testing initiator caspases, the higher enzyme concentration was used for non-optimal LEHE/X substrates.

The target of data set [9] is T2, caspase-8 (Homo sapiens, UniProt Q14790).
T2 construct: made in house
Briefly: IQF substrate hydrolysis kinetics with caspase-8. It is filed as biochemical. To be noted: MCA/Lys(DNP) substrate; caspase-8 50 nM; substrate 4-80 μM; Pipes buffer pH 7.2-7.4 with 1 M sodium citrate; 37 °C; ex 325/em 420 nm; mean of at least three, SD <10%. The procedure: as §1, §2, §3

The target of data set [10] is T3, caspase-3 (Homo sapiens, UniProt P42574).
T3 construct: made in house
T3 sequence (P42574 29-175 limits assumed): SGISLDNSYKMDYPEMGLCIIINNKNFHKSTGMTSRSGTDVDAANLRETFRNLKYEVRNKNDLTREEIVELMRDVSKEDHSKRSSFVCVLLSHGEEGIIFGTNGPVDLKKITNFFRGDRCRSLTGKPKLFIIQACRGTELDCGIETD
T3 sequence (P42574 176-277 limits assumed): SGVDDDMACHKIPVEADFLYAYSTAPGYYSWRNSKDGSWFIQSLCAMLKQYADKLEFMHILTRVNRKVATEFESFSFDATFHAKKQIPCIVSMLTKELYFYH
Briefly: IQF substrate hydrolysis kinetics with caspase-3. It is filed as biochemical. Particulars: MCA/Lys(DNP) substrate; caspase-3 3.0 nM; substrate 1-50 μM; Pipes buffer pH 7.2-7.4; 37 °C; ex 325/em 420 nm; mean of at least three, SD <10%. The procedure: as §1, §2, §3

T2 sequence (Q14790 217-374 limits assumed): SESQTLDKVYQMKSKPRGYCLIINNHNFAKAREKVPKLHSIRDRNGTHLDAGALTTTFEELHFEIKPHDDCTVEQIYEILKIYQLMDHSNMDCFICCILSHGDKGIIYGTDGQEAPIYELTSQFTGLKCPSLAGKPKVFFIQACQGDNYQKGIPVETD
T2 sequence (Q14790 385-479 limits assumed): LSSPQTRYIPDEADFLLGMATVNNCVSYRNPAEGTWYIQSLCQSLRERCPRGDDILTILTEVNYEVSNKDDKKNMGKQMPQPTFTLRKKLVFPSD

`NC(=O)Cc1cc(=O)oc2cc(N)ccc12` [ACC, 7-amino-4-carbamoylmethylcoumarin]: in data set [1], the “fluorescence quantum yield (ϕF)” value is 0.861.

As to `COc1ccc2c(CC(=O)O)cc(=O)oc2c1` [MCA, 7-methoxy-coumarin-4-yl acetic acid], in [1], the “fluorescence quantum yield (ϕF)” value is given as 0.718.

With ACC-GAEPV*SLK(dnp)L-NH2, in data set [2], the cleaved bond entry is given as “V-S”.

In the case of ACC-GDEVD*GVK(dnp)D-NH2, the cleaved bond entry in the data set with caspase-8 [3], in the data set on caspase-3 [4] and with caspase-7 [5] was “D-G” each time.

Consider ACC-GDEVE/XKK(dnp)G-NH2 [DEVE/A], for which the cleaved bond entry is reported as “E-A” with caspase-7 [6], “E-A” in the data set on caspase-3 [7] and “E-Ala” with caspase-6.

Consider ACC-GDEVE/XKK(dnp)G-NH2 [DEVE/G], for which the figures for the cleaved bond entry with caspase-7 [6], in the data set on caspase-3 [7] and with caspase-6 were “E-G”, “E-G” and “E-Gly”, respectively.

In the case of ACC-GGLS(P1)*IVK(DNP)G-NH2, the not cleaved entry with Trypsin is reported as “No measurable hydrolysis”.

Take “ACC-GGLS(P1)*IVK(DNP)G-NH2 [ACC-GGLS(P1)*IVK(DNP)G-NH2, P1 = Arginine]”: the cleaved bond entry in the data set on Trypsin is on record as “Arginine-I”.

Turning to “ACC-GGLS(P1)*IVK(DNP)G-NH2 [ACC-GGLS(P1)*IVK(DNP)G-NH2, P1 = Citrulline]”, the cleaved bond result in the data set on Trypsin was “Citrulline-I”.

“ACC-GGLS(P1)*IVK(DNP)G-NH2 [ACC-GGLS(P1)*IVK(DNP)G-NH2, P1 = Lysine]”: the cleaved bond entry with Trypsin is given as “Lysine-I”.

For “ACC-GGLS(P1)*IVK(DNP)G-NH2 [ACC-GGLS(P1)*IVK(DNP)G-NH2, P1 = Ornithine]”, in the data set on Trypsin, the cleaved bond entry was “Ornithine-I”.

As for ACC-GPLG*LK(dnp)AR-NH2, the cleaved bond result in the data set on MMP9 and in the data set with MMP2 was “G-L” in each case.

For the molecule ACC-GPTN*KVK(dnp)R-NH2, the cleaved bond result in the data set on legumain is “N-K”.

As to MCA-GAEPV*SLK(dnp)L-NH2, the cleaved bond result in data set [2] is listed as “V-S”.

Take MCA-GDEVD*GVK(dnp)D-NH2: the cleaved bond entry in the data set with caspase-8 [3], in the data set with caspase-3 [4] and in the data set with caspase-7 [5] was “D-G” throughout.

As for “MCA-GDEVD*GVK(dnp)D-NH2 [MCA/Lys(DNP) internally quenched fluorescent substrate for caspases]”, on caspase-7 [8], the Km came out at 6.17 µM, the kcat worked out at 0.68 s⁻¹ and the kcat/KM is reported as 106 000 M^−1s^−1. At caspase-8 [9], the Michaelis-Menten constant (Km) was 11.7 µM, the kcat came out at 0.32 s⁻¹ and the kcat/KM is listed as 26 300 M^−1s^−1. At caspase-3 [10], the Km amounted to 4.67 µM, the kcat stood at 11.24 s⁻¹ and the kcat/KM is on record as 2 359 000 M^−1s^−1.

MCA-GPLG*LK(dnp)AR-NH2: the cleaved bond result in the data set with MMP9 and with MMP2 was “G-L” throughout.

With MCA-GPTN*KVK(dnp)R-NH2, in the data set on legumain, the cleaved bond result is on record as “N-K”.
